The source of these data is US8361968B2 (Takeda Pharmaceutical Company Limited, priority 2002, dated 2013).

Numbered stars: 1 amine (or outer) side, 2 acyl side, 3 side chain; on linkers, the order of the positions; unused ones are H or OH. Square brackets hold non-standard residues; d marks the D form. Peptide text beside a SMILES is read from it. * marks the point of attachment. X11 = O=C(CNC(=S)[C@H](Cc1ccccc1)N[*:1])[*:2]; X1 = O=C([C@H](Cc1ccc2ccccc2n1)N[*:1])[*:2]; Arg(Me) = CNC(=N)NCCC[C@H](N)C(=O)O; 4Pal = N[C@@H](Cc1ccncc1)C(=O)O; Cha = N[C@@H](CC1CCCCC1)C(=O)O; X6 = O=C(c1c[nH]c2ccccc12)*; azaGly = NNC(=O)O

Series [1] can be described thus: in vitro. The conditions noted are these: female, Balb/c, mouse, serum.
Experimental: Blood was drawn from Balb/c mice (female) of 8 weeks old, settled at 37° C. for 30 minutes and centrifuged at 13000 rpm for 10 minutes to give the serum as the supernatant. The serum thus obtained was frozen-stored at −80° C.
The stability test was performed by addition of 5 nmol of Compound (5 μL of aqueous solution) to 45 μL of serum and then settlement of the mixture at 37° C. The settlement was made at 3 points of time, including 2, 10 and 30 minutes. The sample after the settlement was boiled for 3 minutes and cooled on an ice bath. After 200 μL of acetonitrile/water (3/1) was added to the sample, the mixture was ultrasonicated for 5 minutes and then centrifuged at 5000 rpm for 1 minute. After 150 μL of the supernatant was diluted with 250 μL of distilled water, insoluble matters were removed by filtration through a filter having a pore size of 0.45 μm and 200 μL of the filtrate was applied on HPLC (220 nm) to determine the peak area of Compound. A ratio of the peak area to the area when Compound was treated for 0 minute under the same conditions was calculated as a mean value in 4 respective runs to determine the residual ratio. Next, by taking the calculated residual ratio on the ordinate and the time on the abscissa, a graph was prepared and approximated by an exponential function.
The preparative HPLC used was the LC-VP series manufactured by Shimadzu Corporation and Wakosil-II 5C18 HG (4.6 mm×100 mm) manufactured by Wako Pure Chemical Industries, Ltd. was used as the column. Eluant A (0.1% TFA-containing water) and eluant B (0.1% TFA-containing acetonitrile) were used as eluants. Analysis was performed by linear density gradient elution (25 minutes) at a flow rate of 1.0 ml/min. using eluants A/B: 100/0-0/50.
Series [2] concerns the target T1, hOT7T175 (Homo sapiens, UniProt Q969F8, L364H). Description: Intracellular Ca ion level-increasing activity using FLIPR in hOT7T175/CHO. The conditions noted are these: relative, Metastin (1-54) = 1. It counts as cell-based. The arrangement: expressed in transfected cells; host or cells: CHO/dhfr- cells, obtained from ATCC.
The target in series [3] is T1, hOT7T175. Kind of series: hOT7T175 receptor binding activity: binding inhibition of Cy-5-labeled metastin (40-54) on hOT7T175-expressed CHO cells. Further details: expressed in transfected cells; host or cells: CHO cells.
Series [4] concerns hOT7T175-expressed CHO cells. It counts as cell-based. The settings on record: hOT7T175-expressed CHO cells; 3 days culture; Cell Counting Kit-8; read-out: IC50 (M), cell growth inhibition activity. How it is done:
Assay for Cell Growth Inhibition Activity in hOT7T175-Expressed Cho Cells hOT7T175-Expressed CHO cells (hereinafter hOT7T175) were cultured in DMEM supplemented with 10% dialyzed FBS (hereinafter 10% dFBS/DMEM), which was used for the following assay. The hOT7T175 was suspended in 10% dFBS/DMEM at 10,000 cells/ml. The cells were plated on a 96 well plate at 100 μL each/well (1,000 cells/well), followed by culturing overnight at 37° C. in a 5% CO2 incubator. On the following day, the medium was removed and 90 μL of 10% dFBS/DMEM supplemented with 0.5% BSA (hereinafter, 0.5% BSA/10% dFBS/DMEM) was added. […] After 10 μL of Cell Counting Kit-8 solution (Dojin Chemical Laboratory) was added to each well, incubation was performed at 37° C. in a 5% CO2 incubator for 4 hours and absorbance was measured at 450 nm.
Background: Formazan colour is commonly taken as a measure of viable cells.

T1 sequence (Q969F8 whole entry L364H): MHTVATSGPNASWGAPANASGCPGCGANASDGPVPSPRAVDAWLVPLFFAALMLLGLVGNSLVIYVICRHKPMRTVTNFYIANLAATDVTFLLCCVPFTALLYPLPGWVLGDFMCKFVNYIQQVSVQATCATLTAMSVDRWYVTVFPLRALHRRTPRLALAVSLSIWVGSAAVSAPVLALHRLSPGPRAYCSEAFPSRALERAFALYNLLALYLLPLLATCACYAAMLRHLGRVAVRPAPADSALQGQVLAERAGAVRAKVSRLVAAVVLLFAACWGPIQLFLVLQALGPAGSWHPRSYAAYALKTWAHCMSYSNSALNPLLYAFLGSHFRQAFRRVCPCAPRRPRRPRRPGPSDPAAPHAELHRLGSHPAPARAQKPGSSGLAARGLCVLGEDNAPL

For orientation: half-life means the time needed for the level to fall by half in the phase considered. The molecule `CNC(N)=NCCC[C@H](NC(=O)[C@H](CC(C)C)NC(=O)CNC(=O)[C@H](Cc1ccccc1)NC(=O)[C@H](CO)NC(=O)[C@H](CC(N)=O)NC(=O)[C@H](Cc1c[nH]c2ccccc12)NC(=O)[C@H](CC(N)=O)NC(=O)[C@@H](N)Cc1ccc(O)cc1)C(=O)N[C@@H](Cc1ccccc1)C(N)=O` [Compound No. 82] gave a half-life at 100 µM in series [1] of 1.8 min.
In series [1], `CNC(=N)NCCC[C@H](NC(=O)[C@H](CC(C)C)NC(=O)CNC[C@H](Cc1ccccc1)NC(=O)[C@H](CO)NC(=O)[C@H](CC(N)=O)NC(=O)[C@H](Cc1c[nH]c2ccccc12)NC(=O)[C@H](CC(N)=O)NC(=O)[C@H](N)Cc1ccc(O)cc1)C(=O)N[C@@H](Cc1ccccc1)C(N)=O` [Compound No. 308, D-Tyr-Asn-Trp-Asn-Ser-PheΨ(CH2NH)Gly-Leu-Arg(Me)-Phe-NH2] showed a half-life at 100 µM of 13.2 min. The “Specific Activity (intracellular Ca ion level-increasing activity)” value in series [2] is listed as 2.
The IC50 is the midpoint of a concentration-inhibition curve. In series [1], `CNC(N)=NCCC[C@H](NC(=O)[C@H](CC(C)C)NC(=O)NNC(=O)[C@H](Cc1ccccc1)NC(=O)[C@H](CO)NC(=O)[C@H](CC(N)=O)NC(=O)[C@H](Cc1ccncc1)NC(=O)[C@H](CC(N)=O)NC(=O)[C@H](N)Cc1ccc(O)cc1)C(=O)N[C@@H](Cc1ccccc1)C(N)=O` [Compound No. 286, D-Tyr-Asn-Pya(4)-Asn-Ser-Phe-AzaGly-Leu-Arg(Me)-Phe-NH2] (H-[dY]N[4Pal]NSF[azaGly]L[Arg(Me)]F-NH2) had a half-life at 100 µM of 57.5 min. In series [3], this molecule had an IC50 of 17 nM.
For the molecule `CC(C)C[C@H](NC(=O)CNC(=O)[C@H](Cc1ccccc1)NC(=O)[C@H](CO)NC(=O)[C@H](CC(N)=O)NC(=O)[C@H](Cc1c[nH]c2ccccc12)NC(=O)[C@H](CC(N)=O)NC(=O)[C@@H](N)Cc1ccc(O)cc1)C(=O)N[C@@H](CCCNC(=N)N)C(=O)N[C@@H](Cc1ccccc1)C(N)=O` [45-54], in series [4], the half-maximal inhibitory concentration (IC50) was 8.51e-06 M.
Turning to `CC[C@H](C)[C@H](NC(=O)[C@H](CC(N)=O)NC(=O)[C@H](N)Cc1ccc(O)cc1)C(=O)N[C@@H](CC(N)=O)C(=O)N[C@@H](CO)C(=O)N[C@@H](Cc1ccccc1)C(=O)NNC(=O)N[C@@H](CC(C)C)C(=O)N[C@@H](CCCNC(=N)NC)C(=O)N[C@@H](Cc1ccccc1)C(N)=O` [Compound No. 233, D-Tyr-Asn-Ile-Asn-Ser-Phe-AzaGly-Leu-Arg(Me)-Phe-NH2] (H-[dY]NINSF[azaGly]L[Arg(Me)]F-NH2), the half-maximal inhibitory concentration (IC50) in series [3] was 23 nM. The “Specific Activity (intracellular Ca ion level-increasing activity)” value in series [2] turned out to be 1.
The matching figures for `CNC(=N)NCCC[C@H](NC(=O)[C@H](CC(C)C)NC(=O)CNC(=O)[C@H](Cc1ccccc1)NC(=O)[C@H](CO)NC(=O)[C@H](CC(N)=O)NC(=O)[C@@H](NC(=O)[C@H](CC(N)=O)NC(=O)[C@H](N)Cc1ccc(O)cc1)[C@@H](C)O)C(=O)N[C@@H](Cc1ccccc1)C(N)=O` [Compound No. 205] (H-[dY]NTNSFGL[Arg(Me)]F-NH2): 260 nM and 10.
The matching figures for `CC(C)C[C@H](NC(=O)CNC(=O)[C@H](Cc1ccccc1)NC(=O)[C@H](CO)NC(=O)[C@H](CC(N)=O)NC(=O)[C@H](Cc1c[nH]c2ccccc12)NC(=O)[C@H](CC(N)=O)NC(=O)[C@@H](N)Cc1ccc(O)cc1)C(=O)N[C@@H](CCCNC(=N)N)C(=O)N[C@@H](Cc1c(F)c(F)c(F)c(F)c1F)C(N)=O` [Compound No. 111]: 140 nM and 3.
The matching figures for `COc1ccc(C[C@H](NC(=O)[C@H](CCCNC(=N)N)NC(=O)[C@H](CC(C)C)NC(=O)CNC(=O)[C@H](Cc2ccccc2)NC(=O)[C@H](CO)NC(=O)[C@H](CC(N)=O)NC(=O)[C@H](Cc2c[nH]c3ccccc23)NC(=O)[C@H](CC(N)=O)NC(=O)[C@@H](N)Cc2ccc(O)cc2)C(N)=O)cc1` [Compound No. 18] (H-YNWNSFGLRY(Me)-NH2): 7.7 nM and 1.
As for `CNC(=N)NCCC[C@H](NC(=O)[C@H](CC(C)C)NC(=O)CNC(=O)[C@H](Cc1ccccc1)NC(=O)[C@H](CO)NC(=O)[C@H](CC(N)=O)NC(=O)[C@H](CC1CCCCC1)NC(=O)[C@H](CC(N)=O)NC(=O)[C@H](N)Cc1ccc(O)cc1)C(=O)N[C@@H](Cc1ccccc1)C(N)=O` [Compound No. 171, D-Tyr-Asn-Cha-Asn-Ser-Phe-Gly-Leu-Arg(Me)-Phe-NH2] (H-[dY]N[Cha]NSFGL[Arg(Me)]F-NH2), the 50% inhibitory concentration (IC50) in series [3] is 110 nM. Further, the “Specific Activity (intracellular Ca ion level-increasing activity)” value in series [2] is given as 10.
As to `CC[C@H](C)[C@H](NC(=O)[C@H](CCC(N)=O)NC(=O)[C@H](CCCNC(=N)N)NC(=O)[C@H](CO)NC(=O)[C@H](Cc1c[nH]cn1)NC(=O)[C@@H]1CCCN1C(=O)[C@H](C)NC(=O)[C@H](CO)NC(=O)[C@H](CC(C)C)NC(=O)CNC(=O)[C@@H]1CCCN1C(=O)[C@H](CCC(N)=O)NC(=O)[C@H](CCC(N)=O)NC(=O)[C@H](CCCNC(=N)N)NC(=O)[C@H](CO)NC(=O)CNC(=O)[C@H](CO)NC(=O)[C@H](CO)NC(=O)[C@H](CCC(=O)O)NC(=O)[C@@H]1CCCN1C(=O)[C@@H]1CCCN1C(=O)[C@@H]1CCCN1C(=O)[C@H](CO)NC(=O)[C@H](CC(C)C)NC(=O)[C@H](CO)NC(=O)[C@@H](NC(=O)CN)[C@@H](C)O)C(=O)N1CCC[C@H]1C(=O)N[C@@H](C)C(=O)N1CCC[C@H]1C(=O)N[C@@H](CCC(N)=O)C(=O)NCC(=O)N[C@@H](C)C(=O)N[C@H](C(=O)N[C@@H](CC(C)C)C(=O)N[C@H](C(=O)N[C@@H](CCC(N)=O)C(=O)N[C@@H](CCCNC(=N)N)C(=O)N[C@@H](CCC(=O)O)C(=O)N[C@@H](CCCCN)C(=O)N[C@@H](CC(=O)O)C(=O)N[C@@H](CC(C)C)C(=O)N1CCC[C@H]1C(=O)N[C@@H](CC(N)=O)C(=O)N[C@@H](Cc1ccc(O)cc1)C(=O)N[C@@H](CC(N)=O)C(=O)N[C@@H](Cc1c[nH]c2ccccc12)C(=O)N[C@@H](CC(N)=O)C(=O)N[C@@H](CO)C(=O)N[C@@H](Cc1ccccc1)C(=O)NCC(=O)N[C@@H](CC(C)C)C(=O)N[C@@H](CCCNC(=N)N)C(=O)N[C@@H](Cc1ccccc1)C(N)=O)C(C)C)C(C)C` [Compound No. 1, Metastin, reference compound], in series [1], the half-life at 100 µM is 22.5 min.
For the molecule `CNC(=N)NCCC[C@H](NC(=O)[C@H](CC(C)C)NC(=O)NNC(=O)[C@H](Cc1ccccc1)NC(=O)[C@H](CO)NC(=O)[C@H](CC(N)=O)NC(=O)[C@H](Cc1ccc2ccccc2n1)NC(=O)[C@H](CC(N)=O)NC(=O)[C@H](N)Cc1ccc(O)cc1)C(=O)N[C@@H](Cc1ccccc1)C(N)=O` [Compound No. 301, D-Tyr-Asn-Ala(2-Qui)-Asn-Ser-Phe-AzaGly-Leu-Arg(Me)-Phe-NH2] (H-[dY]N[X1]NSF[azaGly]L[Arg(Me)]F-NH2), the concentration for half-maximal inhibition (IC50) in series [3] is 15 nM. In addition, in series [2], the “Specific Activity (intracellular Ca ion level-increasing activity)” value is recorded as 1.
For `CC(C)C[C@H](NC(=O)CNC(=O)[C@H](CC1CCCCC1)NC(=O)[C@H](CO)NC(=O)[C@H](CC(N)=O)NC(=O)[C@H](Cc1c[nH]c2ccccc12)NC(=O)[C@H](CC(N)=O)NC(=O)[C@@H](N)Cc1ccc(O)cc1)C(=O)N[C@@H](CCCNC(=N)N)C(=O)N[C@@H](Cc1ccccc1)C(N)=O` [Compound No. 156, Tyr-Asn-Trp-Asn-Ser-Cha-Gly-Leu-Arg-Phe-NH2] (H-YNWNS[Cha]GLRF-NH2), the concentration for half-maximal inhibition (IC50) in series [3] came out at 49 nM. Further, the “Specific Activity (intracellular Ca ion level-increasing activity)” value in series [2] is listed as 2.
As for `CC(C)C[C@H](NC(=O)CNC(=O)[C@H](Cc1ccccc1)NC(=O)[C@H](CO)NC(=O)[C@H](CC(N)=O)NC(=O)[C@H](Cc1c[nH]c2ccccc12)NC(=O)[C@H](CC(N)=O)NC(=O)[C@@H](N)Cc1ccc(O)cc1)C(=O)N[C@@H](CCCNC(=N)N)C(=O)N[C@@H](Cc1c[nH]c2ccccc12)C(N)=O` [Compound No. 134] (H-YNWNSFGLRW-NH2), the half-life at 100 µM in series [1] worked out at 2.4 min. The IC50 in series [3] worked out at 110 nM. Besides, the “Specific Activity (intracellular Ca ion level-increasing activity)” value in series [2] was 30.
Molecule `CNC(N)=NCCC[C@H](NC(=O)[C@H](CC(C)C)NC(=O)CNC(=S)[C@H](Cc1ccccc1)NC(=O)[C@H](CO)NC(=O)[C@H](CC(N)=O)NC(=O)[C@H](Cc1c[nH]c2ccccc12)NC(=O)[C@H](CC(N)=O)NC(=O)[C@H](N)Cc1ccc(O)cc1)C(=O)N[C@@H](Cc1ccccc1)C(N)=O` [Compound No. 296, D-Tyr-Asn-Trp-Asn-Ser-PheΨ(CSNH)Gly-Leu-Arg(Me)-Phe-NH2] (H-[dY]NWNS[X11]L[Arg(Me)]F-NH2) displayed a half-life at 100 µM in series [1] of 47.2 min.
`CNC(=N)NCCC[C@H](NC(=O)[C@H](CC(C)C)NC(=O)NNC(=O)[C@H](Cc1ccccc1)NC(=O)[C@H](CO)NC(=O)[C@H](CC(N)=O)NC(=O)c1c[nH]c2ccccc12)C(=O)N[C@@H](Cc1ccccc1)C(N)=O` [Compound No. 265, Indole-3-carbonyl-Asn-Ser-Phe-AzaGly-Leu-Arg(Me)-Phe-NH2] (X6-NSF[azaGly]L[Arg(Me)]F-NH2) returned an IC50 in series [3] of 95 nM. The “Specific Activity (intracellular Ca ion level-increasing activity)” value in series [2] came to 3.
